Data: patent publication US20140142168A1, “METHODS AND PHARMACEUTICAL COMPOSITIONS FOR THE TREATMENT OF HORMONE-REFRACTORY PROSTATE CANCERS” (CENTRE JEAN PERRIN, priority 2011, published 2014)
Read-outs that look alike come from different tables or passages of the source.

What was measured:
[1] = Blood levels after administration; format: in vivo; conditions: human
Experimental: It was deduced from the investigator data that 1 h after administration of 75 mg/m2 of DTX, blood levels of DTX can reach 3.75 μM.

PC3 cells = test: PC3 survival at end of treatment; format: cell-based, human; conditions: 2 h 3.75 μM DTX then 70 h drug-free medium, with or without 2 days of repeated 0.25 μM curcumin pretreatment
Experimental: The PC3 line is a human p-53 defective HRPC line displaying high SphK1 activity. To mimic the effect of treatment, 10,000 PC3 cells were seeded in each well of 24-well plates and maintained in DMEM containing 10% FBS (complete medium) overnight. […] Indeed, in these experiences PC3 cells were treated the first day for 2 h at 7 h AM and maintained in DFM until 12 h AM (5h). […] As previously, the cells were maintained in DFM for 70 h in DFM after DTX treatment.
PC3 survival was determined at the end of treatment 1 and 3. Telomerase activity was determined in survived cells by Trap assay at the end of treatment 1, 2 and 3.

patients with HRPC = conditions: docetaxel-treated patients, reference randomized study; cited from earlier work

Compound: COc1cc(/C=C/C(=O)CC(=O)/C=C/c2ccc(O)c(OC)c2)ccc1O [curcumin, (1E,6E)-1,7-bis (4-hydroxy-3-methoxyphenyl)-1,6-heptadiene-3 ,5-dione]
- concentration at 1 h ([1]; in vivo): 100 to 450 nM

Compound: CC(=O)O[C@@]12CO[C@@H]1C[C@H](O)[C@@]1(C)C(=O)[C@H](O)C3=C(C)[C@@H](OC(=O)[C@H](O)[C@@H](NC(=O)OC(C)(C)C)c4ccccc4)C[C@@](O)([C@@H](OC(=O)c4ccccc4)[C@H]21)C3(C)C [Docetaxel, (2R,3S)-N-carboxy-3-phenylisoserine, N-tert-butyl ester, 13-ester with 5, 20-epoxy-1,2,4,7, 10, 13-hexahydroxytax-11-en-9-one 4-acetate 2-benzoate, trihydrate]
- number of survived cells (PC3 cells): 90±5%
- concentration at 1 h ([1]; blood, intravenous, 1 h after administration of 75 mg/m2, deduced from the investigator data, read-out: blood levels of DTX): 3750 nM
- PSA response (patients with HRPC): 45%
- objective tumor response (patients with HRPC): 12%
